Several values for one entry are separate records, joined by “and”; a condition that tells them apart may be missing. Equal entries are not always repeated.
What was measured:
[1] = given orally to control fleas; cited from earlier work
[2] = test system: ticks; conditions: given topically, imidacloprid alone; cited from earlier work
[3] = test system: Ctenocephalides felis; assay: Flea infestation on dogs, oral dosing, pan and comb counts; format: in vivo; conditions: for Mean Efficacy / 1 hour pan counts / 3 hour pan counts / Comb Count Day 1 / # Live Fleas Removed / 4 hour pan counts / 6 hour pan counts / Efficacy, Comb Count Day 2 (reinfested) / Efficacy, Comb Count Day 5 (reinfested) / Comb Count Day 2 (reinfested) / Comb Count Day 5 (reinfested) / Efficacy, Comb Count Day 1 / Average 1 hour pan counts / Average 3 hour pan counts: dogs; for Mean Efficacy / Efficacy, Comb Count Day 2 (reinfested) / Efficacy, Comb Count Day 5 (reinfested) / Efficacy, Comb Count Day 1: fleas
Experimental: Flea Species: Ctenocephalides felis
Number: ˜100 unfed adults per dog per infestation with a sex ratio of ˜50/50
(§1) Species/Strain/Source: Dog/beagles/Stillmeadow, Inc. dog colony
(§2) Body weights were recorded during the pretest period. Six dogs were selected for study, weighed and randomly assigned to two groups of three and infested with either 100 fleas or 50 ticks. For the flea study whose results are shown in Table 3, repeat 100 flea infestations were performed on Days 2 and 5, without additional dosing. For all studies, the Group I dogs served as untreated controls. All animals except those in Group II of the study whose results are reported in Table 1 were dosed orally with the test article in gelatin capsules. The Group II, Table 1 animals received 5 mg of imidacloprid active in a chewable drug delivery vehicle.
(§3) For blood collections, drawn blood was collected into lavender top Vacutainer® tubes. The tubes were centrifuged and plasma was drawn off and frozen at approximately −20° C. pending possible future shipment to the sponsor for analysis of levels of test article in the plasma. Comb and pan counts were conducted as noted in the Tables, following dosing. The number of live fleas and ticks removed during the comb counts was recorded as were, where noted in the Tables, dead tick counts.

[4] = test system: Rhipicephalus sanguineus; assay: Tick infestation on dogs, oral dosing, tick counts; format: in vivo; conditions: for Attached Dead Day 2 / Dead Attached Day 6 / Dead Free Day 6 / Live Attached Day 6 / Live Free Day 6 / Ticks Removed Day 2 / Mean Efficacy / Efficacy / Dead Ticks / Live Ticks / Comb Count Day 3 Dead / Comb Count Day 3 Live / Hand Count Day 2: dogs; for Mean Efficacy / Efficacy / Comb Count Day 3 Dead / Comb Count Day 3 Live / Hand Count Day 2: ticks; for Efficacy: Day 6
Experimental: Tick Species: Rhipicephalus sanguineus
Number: ˜50 unfed adults per dog per infestation (˜25 male and ˜25 females)
as §1, §2, §3

[5] = oral 0.5 mg/kg, individual animals, 0.5 mg/kg
[6] = oral 1.0 mg/kg, individual animals, 1 mg/kg
[7] = oral 3.0 mg/kg single dose, group Mean
[8] = oral 3.0 mg/kg single dose, individual animals, 3 mg/kg
[9] = oral 3.0 mg/kg, individual animals, 3 mg/kg
[10] = oral 6.0 mg/kg single dose, group Mean
[11] = oral 6.0 mg/kg, individual animals, 6 mg/kg
[12] = oral 10.0 mg/kg single dose, group Mean
[13] = oral 10.0 mg/kg, individual animals, 10 mg/kg
[14] = oral 3 mg/kg, individual animals, 3 mg/kg
[15] = oral 10 mg/kg, individual animals, 10 mg/kg
[16] = oral 15 mg/kg, Day 1, group Mean
[17] = oral 15 mg/kg, Day 1, individual animals, 15 mg/kg
[18] = oral 22 mg/kg, Day 1, group Mean
[19] = oral 22 mg/kg, Day 1, individual animals, 22 mg/kg
[20] = oral 30 mg/kg, Day 1, group Mean
[21] = oral 30 mg/kg, Day 1, individual animals, 30 mg/kg
[22] = oral 30 mg/kg, individual animals, 30 mg/kg

N#Cc1nn(-c2c(Cl)cc(C(F)(F)F)cc2Cl)c(N)c1[S+]([O-])C(F)(F)F (centres unmarked) [Fipronil, 5-amino-1-[2,6-dichloro-4-(trifluoromethyl)phenyl]-4-[(trifluoromethyl)sulfinyl]-1H-pyrazole-3-carbonitrile]
emesis [1]: known to cause emesis

O=[N+]([O-])N=C1NCCN1Cc1ccc(Cl)nc1 [Imidacloprid, 1-[(6-chloro-3-pyridinyl)methyl]-N-nitro-2-imidazolidinimine]
effect on ticks [2]: little or no effect on ticks | Mean Efficacy ([3]; oral 0.25 mg/kg, Day 1): 100.0 | 1 hour pan counts ([3]; oral 0.25 mg/kg, group Mean): 0.0 | 3 hour pan counts ([3]; oral 0.25 mg/kg, group Mean): 5.5 | 1 hour pan counts ([3]; oral 0.25 mg/kg, individual animals): 0 | 3 hour pan counts ([3]; oral 0.25 mg/kg, individual animals, 0.25 mg/kg): 2 and 9 | Comb Count Day 1 ([3]; oral 0.25 mg/kg, live fleas, group Mean): 0.0 | Comb Count Day 1 ([3]; oral 0.25 mg/kg, live fleas, individual animals): 0 | # Live Fleas Removed ([3]; oral 0.5 mg/kg, column after 4 hour pan counts, group Mean): 22.7 | # Live Fleas Removed ([3]; oral 0.5 mg/kg, column after 4 hour pan counts, individual animals, 0.5 mg/kg): 31 and 2 and 35 | # Live Fleas Removed ([3]; oral 0.5 mg/kg, column after 6 hour pan counts, group Mean): 0.0 | # Live Fleas Removed ([3]; oral 0.5 mg/kg, column after 6 hour pan counts, individual animals): 0 | Mean Efficacy ([3]; oral 0.5 mg/kg): 100.0 | 4 hour pan counts ([3]; oral 0.5 mg/kg, group Mean): 0.0 | 6 hour pan counts ([3]; oral 0.5 mg/kg, group Mean): 39.7 | 4 hour pan counts [3, 5]: 5 and 45 and 15 | 6 hour pan counts [3, 5]: 39 and 33 and 47 | # Live Fleas Removed ([3]; oral 1.0 mg/kg, column after 4 hour pan counts, group Mean): 9.0 | # Live Fleas Removed ([3]; oral 1.0 mg/kg, column after 4 hour pan counts, individual animals, 1 mg/kg): 4 and 12 and 11 | # Live Fleas Removed ([3]; oral 1.0 mg/kg, column after 6 hour pan counts, group Mean): 0.0 | # Live Fleas Removed ([3]; oral 1.0 mg/kg, column after 6 hour pan counts, individual animals): 0 | Mean Efficacy ([3]; oral 1.0 mg/kg): 100.0 | 4 hour pan counts ([3]; oral 1.0 mg/kg, group Mean): 41.7 | 6 hour pan counts ([3]; oral 1.0 mg/kg, group Mean): 44.0 | 4 hour pan counts [3, 6]: 44 and 41 and 40 | 6 hour pan counts [3, 6]: 35 and 44 and 53 | Efficacy, Comb Count Day 2 (reinfested) ([3]; oral 3.0 mg/kg single dose): 68.1 | Efficacy, Comb Count Day 5 (reinfested) ([3]; oral 3.0 mg/kg single dose): 42.1 | Comb Count Day 2 (reinfested) [3, 7]: 22.3 | Comb Count Day 5 (reinfested) [3, 7]: 25.3 | Comb Count Day 2 (reinfested) [3, 8]: 15 and 40 and 12 | Comb Count Day 5 (reinfested) [3, 8]: 32 and 80 and 42 | Efficacy, Comb Count Day 1 ([3]; oral 3.0 mg/kg): 100.0 | Average 1 hour pan counts ([3]; oral 3.0 mg/kg, group Mean): 1.3 | Average 3 hour pan counts ([3]; oral 3.0 mg/kg, group Mean): 9.0 | Comb Count Day 1 ([3]; oral 3.0 mg/kg, group Mean): 0.0 | Comb Count Day 1 ([3]; oral 3.0 mg/kg, individual animals): 0 | Average 1 hour pan counts [3, 9]: 2 and 1 (2×) | Average 3 hour pan counts [3, 9]: 7 and 9 and 11 | Efficacy, Comb Count Day 2 (reinfested) ([3]; oral 6.0 mg/kg single dose): 100.0 | Efficacy, Comb Count Day 5 (reinfested) ([3]; oral 6.0 mg/kg single dose): 79.3 | Comb Count Day 2 (reinfested) [3, 10]: 0.0 | Comb Count Day 5 (reinfested) [3, 10]: 12.1 | Comb Count Day 2 (reinfested) ([3]; oral 6.0 mg/kg single dose, individual animals): 0 | Comb Count Day 5 (reinfested) ([3]; oral 6.0 mg/kg single dose, individual animals, 6 mg/kg): 7 and 17 and 31 | Efficacy, Comb Count Day 1 ([3]; oral 6.0 mg/kg): 100.0 | Average 1 hour pan counts ([3]; oral 6.0 mg/kg, group Mean): 7.6 | Average 3 hour pan counts ([3]; oral 6.0 mg/kg, group Mean): 19.6 | Comb Count Day 1 ([3]; oral 6.0 mg/kg, group Mean): 0.0 | Comb Count Day 1 ([3]; oral 6.0 mg/kg, individual animals): 0 | Average 1 hour pan counts [3, 11]: 5 and 6 and 12 | Average 3 hour pan counts [3, 11]: 13 and 22 and 27 | Efficacy, Comb Count Day 2 (reinfested) ([3]; oral 10.0 mg/kg single dose): 100.0 | Efficacy, Comb Count Day 5 (reinfested) ([3]; oral 10.0 mg/kg single dose): 97.7 | Comb Count Day 2 (reinfested) [3, 12]: 0.0 | Comb Count Day 5 (reinfested) [3, 12]: 2.0 | Comb Count Day 2 (reinfested) ([3]; oral 10.0 mg/kg single dose, individual animals): 0 | Comb Count Day 5 (reinfested) ([3]; oral 10.0 mg/kg single dose, individual animals, 10 mg/kg): 0 and 5 and 1 | Efficacy, Comb Count Day 1 ([3]; oral 10.0 mg/kg): 100.0 | Average 1 hour pan counts ([3]; oral 10.0 mg/kg, group Mean): 11.3 | Average 3 hour pan counts ([3]; oral 10.0 mg/kg, group Mean): 19.0 | Comb Count Day 1 ([3]; oral 10.0 mg/kg, group Mean): 0.0 | Comb Count Day 1 ([3]; oral 10.0 mg/kg, individual animals): 0 | Average 1 hour pan counts [3, 13]: 10 and 16 and 8 | Average 3 hour pan counts [3, 13]: 14 and 25 and 18 | efficacious against pre-existing C. felis infestations ([3]; orally dosed at a rate as low as 0.25 mg/kg): 100% | effective against a flea infestation on treated animals ([3]; single oral dose 0.25 mg/kg, within as little as an hour of administration): 100% | Attached Dead Day 2 ([4]; oral 3 mg/kg, group Mean): 1 | Dead Attached Day 6 ([4]; oral 3 mg/kg, group Mean): 0 | Dead Free Day 6 ([4]; oral 3 mg/kg, group Mean): 0.0 | Live Attached Day 6 ([4]; oral 3 mg/kg, group Mean): 8 | Live Free Day 6 ([4]; oral 3 mg/kg, group Mean): 0 | Ticks Removed Day 2 ([4]; oral 3 mg/kg, group Mean): 18 | Dead Free Day 6 ([4]; oral 3 mg/kg, individual animals): 0 | Attached Dead Day 2 [4, 14]: 1 (2×) and 0 | Dead Attached Day 6 [4, 14]: 2 (2×) and 0 | Live Attached Day 6 [4, 14]: 6 and 4 and 13 | Live Free Day 6 [4, 14]: 1 and 0 (2×) | Ticks Removed Day 2 [4, 14]: 17 and 8 and 28 | Mean Efficacy ([4]; oral 3 mg/kg, Day 2): 15.9 | Efficacy ([4]; oral 3 mg/kg): 61.0 | Attached Dead Day 2 ([4]; oral 10 mg/kg, group Mean): 3 | Dead Attached Day 6 ([4]; oral 10 mg/kg, group Mean): 0 | Dead Free Day 6 ([4]; oral 10 mg/kg, group Mean): 0 | Live Attached Day 6 ([4]; oral 10 mg/kg, group Mean): 17 | Live Free Day 6 ([4]; oral 10 mg/kg, group Mean): 0 | Ticks Removed Day 2 ([4]; oral 10 mg/kg, group Mean): 20 | Dead Free Day 6 ([4]; oral 10 mg/kg, individual animals): 0 | Attached Dead Day 2 [4, 15]: 2 and 0 and 6 | Dead Attached Day 6 [4, 15]: 1 and 0 (2×) | Live Attached Day 6 [4, 15]: 14 and 8 and 28 | Live Free Day 6 [4, 15]: 1 and 0 (2×) | Ticks Removed Day 2 [4, 15]: 16 and 22 and 23 | Mean Efficacy ([4]; oral 10 mg/kg, Day 2): 3.2 | Efficacy ([4]; oral 10 mg/kg): 15.3 | Dead Ticks [4, 16]: 1 | Live Ticks [4, 16]: 15 | Dead Ticks [4, 17]: 0 and 3 and 1 | Live Ticks [4, 17]: 33 and 2 and 10 | Mean Efficacy ([4]; oral 15 mg/kg, Day 1): 48.9 | Dead Ticks [4, 18]: 1 | Live Ticks [4, 18]: 9 | Dead Ticks [4, 19]: 2 and 1 and 0 | Live Ticks [4, 19]: 3 and 12 and 13 | Mean Efficacy ([4]; oral 22 mg/kg, Day 1): 68.2 | Dead Ticks [4, 20]: 2 | Live Ticks [4, 20]: 11 | Dead Ticks [4, 21]: 7 and 0 (2×) | Live Ticks [4, 21]: 10 and 12 and 11 | Mean Efficacy ([4]; oral 30 mg/kg, Day 1): 62.5 | Mean Efficacy ([4]; oral 30 mg/kg, Day 3): 79.5 | Comb Count Day 3 Dead ([4]; oral 30 mg/kg, group Mean): 1 | Comb Count Day 3 Live ([4]; oral 30 mg/kg, group Mean): 5 | Hand Count Day 2 ([4]; oral 30 mg/kg, group Mean): 9 | Comb Count Day 3 Dead [4, 22]: 0 (2×) and 2 | Comb Count Day 3 Live [4, 22]: 6 and 5 and 4 | Hand Count Day 2 [4, 22]: 8 and 13 and 7 | effective against a tick infestation on treated animals ([4]; single oral dose 3 mg/kg, within as little as 24-48 hours of administration): at least 60%

Source: US9820977B2, “Systemic treatment of blood-sucking and blood-consuming parasites by oral administration of a parasiticidal agent” (priority 2008, dated 2017)
